In ChEMBL document CHEMBL1146050, “Depeptidization efforts on P3-P2' alpha-ketoamide inhibitors of HCV NS3-4A serine protease: effect on HCV replicon activity” (Bioorg Med Chem Lett, 2006):
Numbered stars: 1 amine (or outer) side, 2 acyl side, 3 side chain; on linkers, the order of the positions; unused ones are H or OH. Square brackets hold non-standard residues; d marks the D form. Peptide text beside a SMILES is read from it. * marks the point of attachment. NMeAla(cPr) = CN[C@@H](CC1CC1)C(=O)O; Isobutyloxycarbonyl = CC(C)COC(=O)*; X1 = O=C(C(=O)[*:2])C(CC1CC1)N[*:1]; Ala(cPr) = N[C@@H](CC1CC1)C(=O)O; Chg = N[C@H](C(=O)O)C1CCCCC1; Phg = N[C@H](C(=O)O)c1ccccc1

How the values were obtained:
Hepatitis C virus = assay: Inhibitory activity against HCV replicon; format: functional, Hepacivirus hominis
NS3 = NS3 (Hepatitis C virus, UniProt A3EZJ3); assay: Inhibitory activity against HCV NS3 protease; set-up: species or system Hepacivirus hominis; details: read-out: Ki app
Chain of NS3 (A3EZJ3 whole entry): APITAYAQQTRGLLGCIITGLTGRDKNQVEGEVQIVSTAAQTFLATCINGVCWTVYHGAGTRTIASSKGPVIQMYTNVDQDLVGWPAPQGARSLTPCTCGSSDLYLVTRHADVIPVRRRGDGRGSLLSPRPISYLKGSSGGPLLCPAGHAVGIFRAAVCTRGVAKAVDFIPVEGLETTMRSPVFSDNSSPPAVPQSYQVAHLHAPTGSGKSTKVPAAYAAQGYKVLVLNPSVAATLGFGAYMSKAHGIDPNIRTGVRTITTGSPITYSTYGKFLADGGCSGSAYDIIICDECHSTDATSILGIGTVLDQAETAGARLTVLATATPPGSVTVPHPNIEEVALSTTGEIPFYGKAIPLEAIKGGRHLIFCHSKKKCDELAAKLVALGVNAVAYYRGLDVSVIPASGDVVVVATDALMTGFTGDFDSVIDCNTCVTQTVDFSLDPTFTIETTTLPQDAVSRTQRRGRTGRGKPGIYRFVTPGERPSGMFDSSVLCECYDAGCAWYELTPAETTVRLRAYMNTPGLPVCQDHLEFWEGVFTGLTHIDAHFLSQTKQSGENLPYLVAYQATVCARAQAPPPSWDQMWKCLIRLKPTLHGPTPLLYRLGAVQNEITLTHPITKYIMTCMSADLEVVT

SMILES	IC90 (Hepatitis C virus) [nM]	Ki (NS3) [nM]
CC(C)COC(=O)N[C@@H](C1CCCCC1)[C@@H](O)CC(=O)N[C@@H](CC1CC1)C(=O)NC(CC1CC1)C(=O)C(=O)NCC(=O)N[C@H](C(=O)O)c1ccccc1 (stereo partly specified)	> 5000	42000
CC(C)COC(=O)N[C@@H](C1CCCCC1)[C@@H](O)CN(CC1CC1)C(=O)NC(CC1CC1)C(=O)C(=O)NCC(=O)N[C@H](C(=O)O)c1ccccc1 (stereo partly specified)	> 5000	10000
CC(C)COC(=O)N[C@H](C(=O)NN(CC1CC1)C(=O)NC(CC1CC1)C(=O)C(=O)NCC(=O)N[C@H](C(=O)O)c1ccccc1)C1CCCCC1 (stereo partly specified)	> 5000	230
CC(C)COC(=O)N[C@H](C(=O)CN(CC1CC1)C(=O)NC(CC1CC1)C(=O)C(=O)NCC(=O)N[C@H](C(=O)O)c1ccccc1)C1CCCCC1 (stereo partly specified)	> 5000	2100
CC(C)COC(=O)N[C@H](C(=O)N[C@@H](CC1CC1)C(=O)NC(CC1CC1)C(=O)C(=O)NCC(=O)N[C@H](C(=O)N(C)C)c1ccccc1)C1CCCCC1 (stereo partly specified) (Isobutyloxycarbonyl-[Chg][Ala(cPr)][X1]G[Phg]-NMe2)	> 5000	50
CC(C)COC(=O)N[C@H](C(=O)N[C@@H](CC1CC1)C(=O)NC(CC1CC1)C(=O)C(=O)NCC(=O)N[C@H](C(=O)O)c1ccccc1)C1CCCCC1 (stereo partly specified) (Isobutyloxycarbonyl-[Chg][Ala(cPr)][X1]G[Phg]-OH)	> 5000	15
CC(C)COC(=O)N[C@H](C(=O)N(C)[C@@H](CC1CC1)C(=O)NC(CC1CC1)C(=O)C(=O)NCC(=O)N[C@H](C(=O)N(C)C)c1ccccc1)C1CCCCC1 (stereo partly specified) (Isobutyloxycarbonyl-[Chg][NMeAla(cPr)][X1]G[Phg]-NMe2)	950	60
CC(C)COC(=O)N[C@H](C(=O)N(C)[C@@H](CC1CC1)C(=O)NC(CC1CC1)C(=O)C(=O)NCC(=O)N[C@H](C(=O)O)c1ccccc1)C1CCCCC1 (stereo partly specified) (Isobutyloxycarbonyl-[Chg][NMeAla(cPr)][X1]G[Phg]-OH)	> 5000	120
